Assay results as given in patent publication US20260297542A1, “HERBICIDE RESISTANT PLANTS” (SYNGENTA CROP PROTECTION AG, priority 2023, published 2026).
Substitutions are numbered along the chain they refer to.

Legend:
Assay in all cases: E. coli hemG growth inhibition by herbicide, AtPPO1 variant
Type in all cases: cell-based
Settings in all cases: read-out: percentage growth inhibition
AtPPO1 Y362C = biological target: T1, AtPPO1 Y362C (Arabidopsis thaliana, UniProt P55826, Y362C)
T1 construct: expressed in transfected cells; host or cells: E. coli BL21(DE3) hemG, pET24a plasmid
T1 sequence (P55826 35-537 Y362C): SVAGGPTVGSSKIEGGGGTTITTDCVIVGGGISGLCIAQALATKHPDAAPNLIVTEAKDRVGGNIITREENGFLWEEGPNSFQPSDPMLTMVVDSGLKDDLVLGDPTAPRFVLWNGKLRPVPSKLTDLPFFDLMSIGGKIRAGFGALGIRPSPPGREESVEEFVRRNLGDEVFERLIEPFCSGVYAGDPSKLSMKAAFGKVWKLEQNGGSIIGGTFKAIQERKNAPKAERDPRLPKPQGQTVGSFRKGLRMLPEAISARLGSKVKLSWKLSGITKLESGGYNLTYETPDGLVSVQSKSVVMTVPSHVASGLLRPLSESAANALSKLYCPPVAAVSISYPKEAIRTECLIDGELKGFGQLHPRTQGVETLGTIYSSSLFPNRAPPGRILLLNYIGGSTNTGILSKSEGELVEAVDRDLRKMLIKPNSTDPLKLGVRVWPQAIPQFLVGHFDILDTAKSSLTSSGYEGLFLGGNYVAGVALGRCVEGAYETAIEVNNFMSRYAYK
Summary of the method: (§1)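 Read-out is OD600 at 24 h post inoculation, converted to percent growth inhibition relative to DMSO. The hemG-deleted BL21(DE3) host relied on the plasmid-borne AtPPO1 variant, induced with 0.1 mM IPTG, with 6.25 ppm herbicide 0 or E or 0.78 ppm herbicide B present at 37° C.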

AtPPO1 Y362F = biological target: T2, AtPPO1 Y362F (Arabidopsis thaliana, UniProt P55826, Y362F)
T2 construct: expressed in transfected cells; host or cells: E. coli BL21(DE3) hemG (pET24a, T7 promoter)
T2 sequence (P55826 35-537 Y362F): T1 sequence (P55826 35-537 Y362C) with C328F
Summary of the method: as §1

AtPPO1 V206G = biological target: T3, AtPPO1 V206G (Arabidopsis thaliana, UniProt P55826, V206G)
T3 construct: expressed in transfected cells; host or cells: E. coli BL21(DE3) hemG (hemG replaced by CmR), pET24a plasmid
T3 sequence (P55826 35-537 V206G): T1 sequence (P55826 35-537 Y362C) with V172G, C328Y
Summary of the method: as §1

AtPPO1 G404A = biological target: T4, AtPPO1 G404A (Arabidopsis thaliana, UniProt P55826, G404A)
T4 construct: expressed in transfected cells; host or cells: E. coli BL21(DE3) hemG (pET24a, T7 promoter)
T4 sequence (P55826 35-537 G404A): T1 sequence (P55826 35-537 Y362C) with C328Y, G370A
Summary of the method: as §1

Row | Structure (SMILES) | inhibition at 6.25 ppm (AtPPO1 Y362C) | inhibition at 6.25 ppm (AtPPO1 Y362F) | inhibition at 6.25 ppm (AtPPO1 V206G) | inhibition at 6.25 ppm (AtPPO1 G404A) | inhibition at 0.78 ppm (AtPPO1 Y362C) | inhibition at 0.78 ppm (AtPPO1 Y362F) | inhibition at 0.78 ppm (AtPPO1 V206G) | inhibition at 0.78 ppm (AtPPO1 G404A)
1 | CCOC(=O)[C@]1(C)CC(c2cc(-n3c(=O)n(C)c(=S)n(C)c3=O)c(F)cc2Cl)=NO1 [Herbicide D, ethyl (5S)-3-[2-chloro-5-(3,5-dimethyl-2,6-dioxo-4-thioxo-1,3,5-triazinan-1-yl)-4-fluoro-phenyl]-5-methyl-4H-isoxazole-5-carboxylate] | 43% | 13% | 19% | 4% | – | – | – | –
2 | C#CCN1C(=O)C(F)(F)Oc2cc(F)c(-n3c(=O)n(C)c(=S)n(C)c3=O)cc21 [Herbicide B, trifludimoxazin] | – | – | – | – | 37% | 34% | 32% | 12%
3 | CC(C)N(C)S(=O)(=O)NC(=O)c1cc(-n2c(=O)cc(C(F)(F)F)n(C)c2=O)c(F)cc1Cl [Herbicide E, saflufenacil] | 58% | 43% | 58% | 2% | – | – | – | –
